In patent US5521315A, “Olefin substituted long chain compounds” (priority 1993, dated 1996):
“And” between values parts separate entries of the source, which are not always exact repeats. Identical values can stand only once. “Also recorded” adds a separate entry of the source. Like-named read-outs stand apart in the source and are kept apart here.

Key:
murine thymocyte = assay: Murine thymocyte stimulated by ConA and IL-2 (T cell immune suppression); format: cell-based; settings: FIGS. 8 and 9
Protocol: A thymocyte costimulator assay is conducted to evaluate the inventive compounds to inhibit activation and proliferation of thymocytes caused by stimulation with Con A and interleukin-1 (IL-1), or […]. Thymuses are obtained from mice (e.g., female Balb/C mice) and the thymuses are removed and dissociated into culture media (e.g., RPMI 1640 without serum supplementation). The dissociated thymus tissue and cell suspension is transferred to centrifuge tubes and allowed to settle, washed with HBSS and resuspended in serum-supplemented culture media (e.g., RPMI 1640 with 10% fetal calf serum). Any contaminating red cells are lysed, and viable cells are resuspended and counted. Thymocytes are plated (e.g., 96-well plates at a density of 2×10^5 cells/well) and a stimulating agent, such as Con A, IL-1 (e.g., IL-1α) or IL-2 is added to the well. The cells are incubated for 4 days at 37° C. On the fourth day, the cells are pulsed with tritiated thymidine and cell proliferation determined. Inventive compounds are added at the time of stimulating agent addition.
A third assay measures an ability of an inventive compound to inhibit IL-2-induced proliferation of murine thymocytes. Thymus glands are obtained from 4-6 week old mice and plated as a single cell suspension into flat bottomed wells in RPMI 1640 medium supplemented with 10% fetal calf serum. The inventive compounds are added to appropriate wells and the cells are incubated for 1-2 hrs. Concanavilin A (ConA, 0.25 mg/ml) and […] (20 ng/ml) are added and the plates are incubated for 4 days. Cell proliferation is determined as above.
FIG. 8 compares T cell immune suppression data of thirteen inventive compounds by comparing their IC50 values in a murine thymocyte stimulated by ConA and IL-2 in vitro model.

[1] = test system: CMV promoter activity in transformed (adenovirus) cells; assay: CMV promoter assay (gene transcription and translation; cytotoxicity in transformed cells); format: cell-based
Text: (§1) FIG. 18 illustrates data regarding proliferative activity of various inventive compounds for inducting CMV promoter activity. The CMV promoter assay measures gene transcription and translation activity wherein any active compounds will have cytotoxic activity to inhibit cellular protein synthesis machinery in transformed (adenovirus) cells.
as §1, with “This example” for “FIG. 18”

mast cell degranulation = assay: Serotonin release assay (inhibition of mast cell degranulation); format: cell-based; parameters: INCORP / TOTAL: unit not given here; settings: 50 μM; for AVERAGE % RELEASE: average of duplicates; for RELEASE-SPONT: average corrected for spontaneous release; for inhibition at 50 µM: Mast cell
Text: A serotonin release assay is utilized to study the utility of the inventive compounds for treatment of asthma and allergy. […] This assay measures mast cell degranulation, which is an early phase reaction to allergen challenge. Mast cells grown in tissue culture are first loaded with ^3 H serotonin, which is incorporated into the granules in the cells. The mast cells are sensitized with antigen specific monoclonal IgE, and then triggered to degranulate with the specific antigen (dinitorphenolbound to BSA (DNP)). When the cells degranulate, ^3 H Serotonin is released into the medium, and can be measured directly. The ability of the inventive compounds to inhibit the degranulation response is determined by the decrease in ^3 H Serotonin released in the presence of drug and is represented as % INHIBITION.
Specifically, the serotonin release assay seeds 2×10^5 cells in 0.5 ml medium in duplicate for spontaneous release, IgE+DNP, IgE+DNP+EtOH (vehicle control), and inventive compounds. […] The cells are incubated for 18 hours at 37° C. in 5% CO2, washed twice with 0.5 ml Isotonic Buffer (25 mM disodium PIPES pH 7.1,100 mM NaCl, 5 mM KCl, 5 mM glucose, 0.4 mM MgCl2, 1mM CaCl2, 0.1% BSA), and sterile filtered. 250 μl Isotonic Buffer is added per well and the plates are equilibrated in an incubator for about 10 min. Drug is added and cells are activated with 40 ng/ml DNP-BSA (1 mg/ml Diluted 1:200 in Isotonic Buffer) for 45 minutes using 2 μl/250 μl. Spontaneous release is determined in incubated cells with 250 μl Isotonic Buffer for 45 minutes and the reaction is stopped by removing supernatant and centrifuging at ~4000 rpm in microfuge for 15 seconds to remove any detached cells. Released radiolableled serotonin is counted. To determine amount of ^3 H-serotonin incorporated into the cells, (a) remove Isotonic Buffer and lyse cells by adding 250 μl 1% Triton-X100 in PBS, (b) add to 5 ml scintillation fluid, (c) wash 2× with Triton/PBS, and (d) add washes to scintillation tube. Percent serotonin release is calculated by dividing the amount of released serotonin by the sum of incorporated plus released serotonin and correcting for spontaneous released serotonin. Compound inhibition is calculated by dividing the percent serotonin release in the presence of a compound by the percent serotonin release in the absence of the compound.
This assay is described above and provides an in vitro model for an allergy and asthma therapeutic product.

human lymphocytes [2] = assay: CD3 blastogenesis assay; format: cell-based; settings: IL-2 or CD3 blastogenesis; FIG. 13
Protocol: (§2) The CD3 blastogenesis assay is virtually identical to the IL-2 blastogenesis assay described herein, except a human anti-CD3 monoclonal antibody (4 μg/ml, Boehinger Manheimm) is used instead of human IL-2 and the cells are incubated for only three days.
as §2, with “This example illustrates various IC50 values of five inventive compounds as determined by an IL-2 blastogenesis assay described in example 44 above or a CD3 blastogenesis assay. The” for “The”

[3] = test system: PBMC in mixed lymphocyte assay culture; assay: Percent viable cells in mixed lymphocyte assay culture after six days; format: cell-based, human; settings: for cytotoxicity in mixed lymphocyte assay culture: 100 μM, six days of culture
[4] = test system: PBMC (peripheral blood mononuclear cells); assay: Two-way mixed lymphocyte reaction (MLR), proliferation of PBMC to allogeneic stimulation; format: cell-based, human; settings: for mixed lymphocyte reaction activity: FIGS. 1 and 2
Text: Various in vitro assays can be used to measure effects of the inventive compounds to module immune activity and have antitumor activity using a variety of cellular types. For example, a mixed lymphocyte reaction (MLR) provides a valuable screening tool to determine biological activity of each inventive compound. In the MLR, PBMCs (peripheral blood mononuclear cells) are obtained by drawing whole blood from healthy volunteers in a heparinized container and diluted with an equal volume of hanks balanced salt solution (HBSS). This mixture is layered on a […] density gradient, such as a Ficoll-Hypaque® gradient (specific gravity 1.08), and centrifuged at 1000×g for 25 minutes at room temperature or cooler. PBMC are obtained from a band at a plasma-Ficoll interface, separated and washed at least twice in a saline solution, such as HBSS. Contaminating red cells are lysed, such as by ACK lysis for 10 min at 37° C., and the PBMCs are washed twice in HBSS. The pellet of purified PBMCs is resuspended in complete medium, such as RPMI 1640 plus 20% human inactivated serum. Proliferative response of PBMC to allogeneic stimulation is determined in a two-way MLR performed in a 96-well microliter plate. Briefly, approximately 10^5 test purified PBMC cells in […] complete medium are co-cultured with approximately 10^5 autologous (control culture) or allogeneic (stimulated culture) PBMC cells, wherein the allogeneic cells are from HLA disparate individuals. Varying doses of compounds (drug) are added at the time of addition of cells to the microtiter plate. The cultures are incubated for 6 days at 37° C. in a 5% CO2 atmosphere. At the conclusion of the incubation tritiated thymidine is added (for example, […] of 40 to 60 Ci/mmole) and proliferation determined by liquid scintillation counting.
This example illustrates a mixed lymphocyte reaction assay of inventive compounds by showing the IC50 value of each compound in this assay and a dose response of several compounds to illustrate an IC50 determination.

human lymphocytes [5] = assay: IL-2 induced blastogenesis assay; format: cell-based; settings: human IL-2, six days; FIG. 12
Protocol: (§3) Briefly, human lymphocytes are obtained from blood from normal volunteers and plated into wells at 2×10^5 cells/well. Human IL-2 ([…] or 5 μl of a 100 U/ml solution) and drug at various concentrations are added to each well. The cells are incubated for six days and then proliferation is determined by a standard tritiated thymidine incorporation procedure. […] However, both CT1406 and CT1442 were active, as is shown by IC50 values in FIG. 12.
as §3, with “This example illustrates the effects of four inventive compounds to inhibit proliferation of human lymphocytes in an IL-2 induced blastogenesis in vitro assay. […] Briefly,” for “Briefly,”, “cells am” for “cells are”

Compound | T cell immune suppressing activity (murine thymocyte) | IC50 ([1]; Table 2, read-out: IC50) [µM] | activity in serotonin release assay (mast cell degranulation) | % INHIBITION (mast cell degranulation; Table 4) [%] | AVERAGE % RELEASE (mast cell degranulation; Table 4) [%] | % RELEASE (mast cell degranulation; Table 4, duplicate wells) | INCORP (mast cell degranulation; Table 4, duplicate wells) | RELEASE (mast cell degranulation; Table 4, duplicate wells) | RELEASE X2 (mast cell degranulation; Table 4, duplicate wells) | TOTAL (mast cell degranulation; Table 4, duplicate wells) | % INHIBITION (mast cell degranulation; Table 5) [%] | immune suppressing activity in blastogenesis assays (human lymphocytes [2]) | IC50 [1] [µM] | cytotoxicity in mixed lymphocyte assay culture [3] | mixed lymphocyte reaction activity [4] | RELEASE-SPONT (mast cell degranulation; Table 4) [%] | inhibition at 50 µM (mast cell degranulation; Table 4) [%] | activity in IL-2 blastogenesis assay (human lymphocytes [5]) | therapeutic window ([3]; cytotoxicity at 100 μM vs MLR IC50) | IC50 ([4]; Homo sapiens, PBMC, FIGS. 3 and 4) [µM]
C=CCCCCn1c(=O)c2c(ncn2COC(=O)C(C)(C)C)n(C)c1=O [CT1441, 1-(5-hexenyl)-3-methyl-7-methylpivaloylxanthine] | potent immune suppressing activity | 300 | appear to be quite potent | 107.89 | 15.92 | 15.85% and 16.00% | 22567 and 24238 | 2125 and 2308 | 4250 and 4616 | 26817 and 28854 | 107.89 |  |  |  |  |  |  |  |  | 
C=CCCCCCCCCCn1c(=O)c2c(ncn2C)n(C)c1=O [CT2501, 1-(10-undecenyl)-3,7-dimethylxanthine] |  |  | the two most potent compounds in this group |  | 19.06 |  |  |  |  |  |  | significant immune suppressing activity | 200 | little or no cytotoxicity at concentrations well above its effective concentrations | showed activity within dose ranges achievable in vivo | 2.50 | 68.8 |  |  | 
C=CCCCCCCCCCn1c(=O)c2[nH]cnc2n(C)c1=O [CT1406, 1-(10-undecenyl)-3-methylxanthine] |  |  |  |  | 19.81 |  |  |  |  |  |  |  | 60 | the most cytotoxic at 100 μM | the most potent activity | 3.26 | 59.4 | active | significant therapeutic window | 20
Cyclosporin A [reference compound] |  |  |  |  |  |  |  |  |  |  |  | generally not very active |  |  |  |  |  | does not show significant activity |  | 
CC/C=C/CCCCCn1c(=O)c2c(ncn2C)n(C)c1=O [CT2512, 1-(6-trans-nonenyl)-3,7-dimethylxanthine] |  |  | appears to increase the activity; also recorded: increases the activity |  | 18.20 |  |  |  |  |  |  | significant immune suppressing activity | 50 |  |  | 1.65 | 79.5 |  |  | 
CC/C=C\CCCCCn1c(=O)c2[nH]cnc2n(C)c1=O [CT1442, 1-(6-cis-nonenyl)-3-methylxanthine] | potent immune suppressing activity |  | increases the activity |  | 19.49 |  |  |  |  |  |  |  |  | little or no cytotoxicity at concentrations well above its effective concentrations | the most potent activity | 2.94 | 63.4 | active |  | 
CCCCC/C=C\C/C=C\CCCCCCCCn1c(=O)c2c(ncn2C)n(C)c1=O [CT1524, 1-(cis,cis-9,12-octadecadienyl)-3,7-dimethylxanthine] | potent immune suppressing activity |  | may be showing some toxicity at the concentration of 50 μM |  | 30.46 |  |  |  |  |  |  | significant immune suppressing activity | 50 |  | showed activity within dose ranges achievable in vivo | 13.90 | -73.3 |  |  | 
